Measured values as given in publication PMC11697113, “The Hsc70 system maintains the synaptic SNARE protein SNAP-25 in an assembly-competent state and delays its aggregation [drawing 1]” (The Journal of Biological Chemistry, 2024).

Target: T1, Hsc70 (Homo sapiens, UniProt P11142)
T1 construct: 6X His-tag (TEV-cleavable) (cleaved yes); made in house; host or cells: E. coli Rosetta (DE3)
Assay: Competition binding vs FITC-p5 by fluorescence anisotropy
Conditions: Hsc70 5 μM, FITC-p5 50 nM, competitor 0 to 200 μM, phosphate buffer pH 7.4, overnight 4 °C, three independent experiments; for relative affinity for Hsc70: fluorescence anisotropy, comparator LOOPP
Protocol: Figure 3 Hsc70 forms complexes with SNAP-25.A, native PAGE of SNAP-25 (10 μM) in the presence and absence of Hsc70 (2 μM). The difference in signal intensity of His-SNAP25 probed with antibody is likely due to altered epitope exposure upon formation of the SNAP-25-Hsc70 complex. B, binding of SNAP-25 (black), SNAP-25 SNN (SNNFR, orange), and SNC (SNCFR, green)) fragments to Hsc70 by competition followed by fluorescence anisotropy. Increasing concentrations of the competitors were added to a complex of Hsc70 (5 μM) and FITC-p5 peptide (50 nM). Error bars represent SDs from three independent experiments.
To pin down the regions in SNAP-25 where Hsc70 binds we expressed the individual SNN and SNC fragments of SNAP-25 and tested their ability to compete for Hsc70 binding to an FITC-labeled p5 peptide (ALLLSAPRR).
Figure 5 SNN and SNC peptides interact with the canonical substrate-binding site of Hsc70.A, ATPase activity of Hsc70 (2 μM) in the absence (gray) and presence of 200 μM SNNP (orange) and SNCP (green) peptides. Error bars represent the SDs from three independent experiments. B, binding of SNAP-25 (black), SNNP (orange), LoopP (blue), and SNCP (green) peptides to Hsc70 followed by competition for FITC-p5 peptide using fluorescence anisotropy. Increasing concentrations of the competitors were added to a complex of Hsc70 (5 μM) and FITC-p5 peptide (50 nM). Error bars represent SDs from three independent experiments. C, structure of the canonical substrate-binding site of human HspA1 (PDB 4po2) illustrating the location of Hsc70 residues Ile 403 and Ile 440 in red and green spheres, respectively (N.B., Hsc70 and HspA1 share […] sequence identity). The SBD is shown in gray, bound substrate in cyan sticks, and the side chain of the residue occupying the 0th position in the chaperone (“anchor residue”) in orange ball and sticks. For better visualization of the substrate-binding site, residues 512 to 613, 405 to 408, and 431 were removed in this illustration of the structure. D, the Ile region of the ^1H-^13 C HMQC spectra of Ile-^13CH3-labeled Hsc70 (40 μM) in the absence (black) and in the presence of unlabeled SNNP (orange) and SNCP (green) peptides (200 μM).
To further characterize the binding of the SNAP-25 peptides to Hsc70 we used competition assays as above. Peptides SNNP, LOOPP, and SNCP were titrated against the protein-peptide complex of Hsc70 and FITC-p5 and fluorescence anisotropy was monitored to assess how well the SNAP-25 peptides displaced the model peptide.
Direct binding between the p5 peptide (QSRLLLSAPRRAA) and Hsc70 was carried out as described previously ([52]). […] Fluorescence anisotropy was measured in a BioTek plate reader (BioTek) with excitation at 485 nm and emission at 516 nm.
The measured anisotropy values were converted to fraction bound (fb) using the equation: fb=(r−r0)/(rb−r0) where r is the anisotropy value at any point, r0 is the anisotropy value of FITC-p5 in the absence of Hsc70, and rb is the anisotropy value of FITC-p5 when fully bound to Hsc70. […]
For competition assays, the concentrations of Hsc70 and FITC-P5 were kept constant at 5 μM and 50 nM, respectively, and the competitor substrate was titrated from 0 to 200 μM in phosphate buffer. […] Fluorescent anisotropy was measured as described above. […]

T1 sequence (P11142 whole entry): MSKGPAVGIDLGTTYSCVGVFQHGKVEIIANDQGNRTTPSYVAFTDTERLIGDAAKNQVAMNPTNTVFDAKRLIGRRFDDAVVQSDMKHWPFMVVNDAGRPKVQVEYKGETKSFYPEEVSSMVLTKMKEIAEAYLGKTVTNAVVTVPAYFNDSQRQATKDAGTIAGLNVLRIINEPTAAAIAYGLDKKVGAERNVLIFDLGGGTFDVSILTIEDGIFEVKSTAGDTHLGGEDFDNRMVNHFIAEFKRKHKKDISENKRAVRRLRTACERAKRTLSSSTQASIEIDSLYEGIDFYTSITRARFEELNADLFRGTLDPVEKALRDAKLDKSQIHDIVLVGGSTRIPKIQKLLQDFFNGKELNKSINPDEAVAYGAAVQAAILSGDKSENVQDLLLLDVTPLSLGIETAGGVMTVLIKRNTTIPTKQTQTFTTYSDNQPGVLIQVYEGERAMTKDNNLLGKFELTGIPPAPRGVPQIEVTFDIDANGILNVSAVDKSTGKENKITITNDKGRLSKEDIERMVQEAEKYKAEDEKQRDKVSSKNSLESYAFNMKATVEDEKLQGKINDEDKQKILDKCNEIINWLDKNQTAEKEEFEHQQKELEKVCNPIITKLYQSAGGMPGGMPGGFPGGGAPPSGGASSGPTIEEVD

Substance	competition with p5 peptide for binding to Hsc70 (fluorescence anisotropy 485/516 nm)	relative affinity for Hsc70
synaptosomal-associated 25 kDa protein [SNAP-25]	competed with p5 peptide for binding to Hsc70	–
EREQMAISGGFIRR [SNCP, peptide … from the LOOP-SNC domain of SNAP-25]	–	significantly higher affinity than LOOPP
RRMLQLVEESK [SNNP, peptide … from the SNN domain of SNAP-25]	–	significantly higher affinity than LOOPP
